Measurements taken from patent US7671176B2, “Opiate receptor polypeptide” (The Research Foundation of SUNY, priority 2001, dated 2010).

Test system: mu4 opiate receptor mRNA in mononuclear cells
Assay: Real-time RT-PCR of mu4 mRNA expression in treated human mononuclear cells
Assay type: cell-based
Details: SNAP 1 μM
Procedure: Human heparinized whole blood cells obtained from volunteer blood donors (Long Island Blood Services; Melville, N.Y.) were immediately separated using the 1-Step Polymorphs (Accurate Chemical and Scientific Corporation, Westbury, N.Y.) gradient medium. Five mL of the heparinized blood was layered over 3.5 mL of polymorphs in a 14 mL round-bottom tube and centrifuged for 35 minutes at 500×g in a swinging-bucket rotor at 18° C. […] In addition, residual red blood cells were lysed using ACK lysing buffer (Current Protocol in Immunology). […] The cells were then treated with SNAP (1 μM), SNAP plus superoxide dismutase (SOD; 100 units/mL) (SIGMA St. Louis, Mo.), or SOD (100 U/mL), respectively.
After incubation, mononuclear cells were pelleted by centrifugation, and total RNA was isolated with the RNeasy Protect Mini Kit (Qiagen, Stanford, Calif.) following the directions supplied by the manufacturer. RNA was eluted with 50 μL of RNase-free water.
First strand cDNA synthesis was performed using random hexamers (GIBCO, BRL, Gaithesburg, Md.). 3 μg of total RNA isolated from human mononuclear cells were denatured at 95° C. and reverse transcribed at 40° C. for 1 hour using Superscript® II Rnase H-RT (GIBCO BRL, Gaithesburg Md.). Five μL of the RT product was used for the real-time PCR reaction.
Primers and probe specific for the mu4 opiate receptor sequence were designed as follows using the software Primer Express® (Applied Biosystems). […] The Taqman® probe was constructed with the 5′ reporter dye 6-carboxyfluorescein and a 3′ quencher dye 6-carboxy-tetramethyl-rhodoamine. The 2× universal master mix (Applied Biosystems) containing PCR buffer, MgCl2, dNTPs, and the thermal stable AmpliTaq Gold® DNA polymerase was used in the PCR reactions. In addition, 200 μM of reverse and forward primers, 100 μM Taqman® probe, 5 μL of RT product, and Rnase/DNase-free water were added to the master mix to a final volume of 50 μL. […] The PCR results were analyzed with the GeneAmp® 5700 SDS software (Applied Biosystems). […]

Question: Which results are given for CC(=O)NC(C(=O)O)C(C)(C)SN=O (racemic) [SNAP, S-nitroso-N-acetyl-DL-penicillamine]?
Answer: mu4 mRNA expression (after 6 hours of treatment, p=0.029 vs control): 8±5.6 relative mRNA level; mu4 mRNA expression (after 24 hours of treatment, n=1): 10.5 relative mRNA level; mu4 mRNA expression (treated for 30 minutes, SOD 100 units/mL, nontreated cells 1.0): 0.05 relative mRNA level
